Experimental data as given in patent US20050004105A1, “Treatment for a attention-deficit hyperactivity disorder” (priority 2003, published 2005).
“Also recorded” adds a separate entry of the source. Like-named read-outs stand apart in the source and are kept apart here.

What was measured:
mice (C57BL/6J; C3H) = assay: Peak procedure (peak interval procedure, PIP); assay type: in vivo; conditions: for effect on performance (relative response rate curve) in PIP 30 s task: C57BL/6J mice, vs saline
Method: The peak procedure is a behavioral model designed to assess an animal's ability to learn an appropriate time period in which to perform a task and a time period in which the animal will be rewarded if the task is performed. The model provides information concerning excitatory and inhibitory components of behavior, as subjects must respond to perform a task when appropriate and stop responding in an “empty trial” when time for reward has elapsed and the reward has not been delivered. The task is sensitive to conditions where there is a failure in inhibitory mechanisms, such as seems to be the case for ADHD (Pliszka et al., Biol. Psychiatry, 48:238-46, 2000).
In the peak procedure, mice are trained to work for food that is delivered at the same time in each trial, but withdrawn in some unreinforced trials. Typically, the response rate increases up to a maximum around the reinforcement time, and then decreases to a low toward the end of the trial. The shape of the response rate indicates whether the animal is sensitive to the time of reinforcement. To be able to perform well in this model, the animals need to be able to learn several tasks. First, the animal must make an association between a response (lever pressing, nose poking or key pecking) and the delivery of reward. Second, the animal must be able to perceive and remember time. Third, the animal must act on its remembered time by starting and then stopping or inhibiting the response. Fourth, the animal must be able to compare the elapsed time in the trials with its remembered time to reinforcement. In each trial the time clock is reset, and the animal must reset its internal “counter,” i.e., at the beginning of each trial animals should start “timing” the trial time from zero. The ability to perform this task depends on the animal's working memory. Starting the internal clock at the beginning of the trial requires that the animal pays attention to the trial start time, which could be in the form of a visual signal, or as reported herein, the introduction of a lever into the experimental chamber. […] Accuracy is measured by looking at the shape of the response function; therefore, if the response function is sharper and centered on the reinforcement time it supports a conclusion that attentional processes have been heightened.
All mice were food deprived to a target weight of 85-90% of their free-feeding weight before training began. Mice were fed approximately 10% of their body weight until they reached their target weight. On average, 1 week of food deprivation was sufficient to reach the target weight. During this time, all subjects were fed Bioserve 500 mg precision dustless pellets as their daily ration. They were exposed to Carnation™ evaporated milk in the home cage to avoid a possible neophobic reaction to the reinforcement. Subjects were given 1-week “vacations” every 4 to 6 weeks at which time they were allowed free access to food and a new free-feeding body weight baseline was recorded. Water was continuously available in the cage.
Once deprived, animals were trained to lever-press in an operant chamber using ultrasensitive levers. Sixteen mouse operant chambers (Med Associates, Georgia, Vt.) were configured identically with two retractable ultra-sensitive levers, stimulus lights, and a dipper for delivery of condensed milk. A house light was placed on the opposite wall from the levers. Each chamber was placed in isolation cubicle. A fan provided white masking noise and adequate air.
Training and testing consisted of 1-h daily sessions. Subjects started on a concurrent fixed ratio 1-fixed time 1 min (FR 1-FT 1) schedule of reinforcement in which the house light served as the discriminative stimulus. Food was delivered every 1 min but the delivery was immediate if the animal made a response. […] After no more than 1 week on this schedule, mice began training with a fixed-interval (FI) 10 s schedule in which all trials were separated by a 20 s, intertrial interval. […]

5-HT1B receptors = conditions: Schipper et al., 1991; Boddeke et al., 1992; cited from earlier work
5-HT1A receptors [1] = target: T1, 5-HT1A receptors (Homo sapiens, UniProt P08908); conditions: proportion of maximal inhibition of forskolin-stimulated cAMP relative to 5-HT; Koek et al., 1998; cited from earlier work
T1 sequence (P08908 1-422): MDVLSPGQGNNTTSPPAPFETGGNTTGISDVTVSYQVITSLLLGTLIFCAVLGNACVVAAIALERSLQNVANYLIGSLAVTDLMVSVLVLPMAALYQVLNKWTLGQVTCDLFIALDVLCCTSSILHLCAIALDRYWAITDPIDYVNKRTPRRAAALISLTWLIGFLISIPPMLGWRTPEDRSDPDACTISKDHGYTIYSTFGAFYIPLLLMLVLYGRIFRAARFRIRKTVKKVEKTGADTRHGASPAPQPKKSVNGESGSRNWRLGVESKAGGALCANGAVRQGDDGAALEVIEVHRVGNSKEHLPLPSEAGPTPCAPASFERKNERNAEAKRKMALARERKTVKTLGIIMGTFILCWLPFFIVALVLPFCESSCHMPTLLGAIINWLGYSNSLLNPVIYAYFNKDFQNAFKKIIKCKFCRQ

5-HT1A receptors [2] = target: T1, 5-HT1A receptors; assay: 5-HT1A receptor affinity (Schipper et al., 1991); assay type: binding; conditions: for ΔpKi for 5-HT1A and D2 receptors: based on Ki values of Schipper et al.
[3] = system: coloboma mutant (Cm) mice; assay: Open-field locomotor activity, coloboma mutant mice; assay type: in vivo
Excerpt: (§1) Heterozygote coloboma mice were originally purchased from The Jackson Laboratory (Bar Harbor, Me.) and were bred and maintained in our colony. In the current study, mutant mice and wild-type littermates, all aged 8 to 10 weeks, were used. Animals were divided into 4 groups: mutant/drug-treatment, mutant/vehicle-control, wild-type/drug-treatment, wild-type/vehicle-control (n=4-13 per group). Age and gender were balanced among groups. All animals were housed as littermates (2-4 mice per cage) and were maintained on ad libitum food and water with a 12 hr light/dark cycle.
(§2) The Open-field (OF) test was performed under normal lighting conditions (400 lux). Mice (Cm/+, WT) were brought into the experimental room and allowed at least 1 hr of acclimation. […] Each mouse was then placed into an OF arena (27×27×20 cm) with an infrared beam array system (Med Associates, St. Albans, Vt.) that automatically monitored the animal's activity. Four animals of matching genotype and treatment were tested at one time. The test session lasted 40 min and animals were returned to the home cage at the end of the session. Test measures included locomotion (distance traveled in cm) and number of center entries (zone crossings).

α1 adrenergic receptors = conditions: Schipper et al., 1991; cited from earlier work
wild-type mice = assay: Open-field locomotor activity, wild-type mice; assay type: in vivo
Excerpt: as §1, §2

5-HT1D receptors = conditions: Schipper et al., 1991; cited from earlier work
rats = rats trained to discriminate flesinoxan (0.5 mg/kg i.p.) from saline; cited from earlier work
dopamine D2 receptors [4] = target: T2, dopamine D2 receptors (Homo sapiens, UniProt P14416); assay: Dopamine D2 receptor affinity (Schipper et al., 1991); assay type: binding; conditions: converted from Ki of Schipper et al., read-out: pKi for D2 receptors (converted)
T2 sequence (P14416 whole entry): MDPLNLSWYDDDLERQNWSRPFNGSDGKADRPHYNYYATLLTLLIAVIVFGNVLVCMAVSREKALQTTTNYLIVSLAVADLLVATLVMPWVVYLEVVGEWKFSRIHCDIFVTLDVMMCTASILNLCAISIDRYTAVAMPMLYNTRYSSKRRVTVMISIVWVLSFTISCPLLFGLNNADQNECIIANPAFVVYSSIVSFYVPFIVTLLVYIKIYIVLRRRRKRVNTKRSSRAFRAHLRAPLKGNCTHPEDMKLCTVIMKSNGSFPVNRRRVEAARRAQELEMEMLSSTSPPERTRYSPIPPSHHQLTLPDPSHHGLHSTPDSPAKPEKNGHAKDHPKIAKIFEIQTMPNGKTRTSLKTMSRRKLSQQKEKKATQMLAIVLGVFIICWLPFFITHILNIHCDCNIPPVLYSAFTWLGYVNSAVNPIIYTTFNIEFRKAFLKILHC

D2 receptors = D2 receptors (Homo sapiens, UniProt P14416); conditions: Koek et al., 1998; cited from earlier work
Sequence of D2 receptors (P14416 whole entry): as above

5-HT1A receptors [5] = target: T1, 5-HT1A receptors; assay: 5-HT1A receptor affinity (Koek et al., 1998); assay type: binding; conditions: from pKi values of Koek et al.
5-HT1A receptors [6] = target: T1, 5-HT1A receptors; conditions: Koek et al., 1998; cited from earlier work
5-HT1A receptors [7] = target: T1, 5-HT1A receptors; conditions: Schipper et al., 1991; cited from earlier work
dopamine D2 receptors [8] = target: T2, dopamine D2 receptors; conditions: Schipper et al., 1991; cited from earlier work
[9] = target: other neurotransmitter receptors; conditions: Schipper et al., 1991; cited from earlier work
Cm mutant mice = Cm mutant mice (methylphenidate: both control and Cm mutants); Hess et al., 1996; cited from earlier work
[10] = system: other 5-HT receptor subtypes or other neurotransmitter receptors; conditions: reported; cited from earlier work
[11] = C3H mice, 0.03 mg/kg, vs vehicle
[12] = C3H mice, 0.1 mg/kg, vs vehicle

Cl.O=C(NCCN1CCN(c2cccc3c2OCC(CO)O3)CC1)c1ccc(F)cc1 (single isomer, unassigned; (+)) [flesinoxan, (+)(4-fluoro-N-[2-[4-[2-(hydroxymethyl)-1,4-benzodioxane-5-yl] 1-piperazinyl]ethyl]benzamide) HCl]
effect on response curve in PIP 30 s (mice (C57BL/6J; C3H); [11]): the peaks of the response curve is higher and the curves are sharper than vehicle
effect on response curve in PIP 45 s (mice (C57BL/6J; C3H); [11]): evident but less robust
effect on performance curves in PIP 30 s and PIP 45 s (mice (C57BL/6J; C3H); [12]): more comparable to saline curve
Ki (5-HT1B receptors): 810 nM
intrinsic activity at the 5-HT1A receptor (5-HT1A receptors [1]): 0.93
ΔpKi for 5-HT1A and D2 receptors (5-HT1A receptors [2]): about 1.92
Ki (5-HT1A receptors [2]; converted from Ki of Schipper et al.): 1.7 nM
reduction in locomotor activity compared to vehicle-treated Cm mutants ([3]; Cm mutant mice, 0.3 mg/kg i.p.): more than 75%
total ambulatory distance ([3]; Cm mutant mice, 0.3 mg/kg i.p. 30 min before 40 min open-field session, vehicle 6112±1621): 1462±411 centimeters
frequency of zone crossings ([3]; Cm mutant mice, 0.3 mg/kg i.p., overall effect not statistically significant (p=0.0683)): decreased the frequency of zone crossings in Cm mutants to within the range of saline-treated wild-type mice
Ki (α1 adrenergic receptors): 380 nM
locomotion (distance traveled or zones crossed) (wild-type mice; 0.3 mg/kg i.p.): only marginally affected locomotion
Ki (5-HT1D receptors): 160 nM
generalization to stimuli of α1 adrenoceptor antagonist, α2 adrenoceptor agonist, dopamine receptor agonist or antagonists (rats): did not generalize
Ki (dopamine D2 receptors [4]): 141 nM
pKi for D2 receptors (D2 receptors): 7.05
ΔpKi for 5-HT1A and D2 receptors (5-HT1A receptors [5]): 1.86
pKi for 5-HT1A receptors (5-HT1A receptors [6]): 8.91
Ki (5-HT1A receptors [7]): 1.7 nM
Ki (dopamine D2 receptors [8]): 140 nM

CCCN(CCC)C1Cc2c[nH]c3ccc(C(N)=O)c(c23)C1 (single isomer, unassigned; (-)) [LY228729, (−)-4(dipropylamino)-1,3,4,5-tetrahydrobenz-[c,d,]indole-6-carboxamide]
intrinsic activity at the 5-HT1A receptor (5-HT1A receptors [1]): 0.88

CCCN(CCC)C1CCc2cccc(O)c2C1 (stereo not drawn) [8-OH-DPAT, 8-hydroxy-2(di-n-propylamino)tetralin]
effect on performance curves in PIP 30 s and PIP 45 s (mice (C57BL/6J; C3H); C3H mice, 0.01 mg/kg, vs vehicle, 0.01 mg/kg): not significantly different from the saline curve; also recorded: slightly disruptive
effect on performance curves in PIP 30 s and PIP 45 s (mice (C57BL/6J; C3H); [12]): not significantly different from the saline curve
Ki [9]: > 1000 nM
ΔpKi for 5-HT1A and D2 receptors (5-HT1A receptors [2]): 2.94
attenuation of total ambulatory distance compared to vehicle ([3]; Cm mice, 0.1 mg/kg): ~50%
total frequency of zone crossings ([3]; Cm mice, 0.1 mg/kg, p=0.030): significantly decreased
total ambulatory distance ([3]; Cm mice, 0.1 mg/kg, vehicle 14702±2611, not statistically significant): 7813±2606 centimeters
attenuation of Cm hyperactivity ([3]; Cm mice, lower doses 0.001 or 0.01 mg/kg, data not shown): no significant attenuation
Ki (α1 adrenergic receptors): 380 nM
total ambulatory distance (wild-type mice; 0.1 mg/kg, vehicle 7720±2726, non-significant): 4517±1599 centimeters
Ki (5-HT1D receptors): 930 nM

Cn1c(=O)cnn(CCCCN2CCN(c3ncccn3)CC2)c1=O [F11440, 4-methyl-2-(4-[4-(pyrimidin-2-yl)-piperazino]-butyl)-2H,4H-1,2,4-triazin-3,5-dione]
intrinsic activity at the 5-HT1A receptor (5-HT1A receptors [1]): 1.0
pKi for D2 receptors (D2 receptors): 5.75
ΔpKi for 5-HT1A and D2 receptors (5-HT1A receptors [5]): 2.58
pKi for 5-HT1A receptors (5-HT1A receptors [6]): 8.33

COc1ccc2cccc(N3CCN(CCNC(=O)c4ccc(F)cc4)CC3)c2c1 [S14506, 1(2-[4-fluorobenzoylamino]ethyl)-4-(7-methoxynaphtyl)piperazine]
intrinsic activity at the 5-HT1A receptor (5-HT1A receptors [1]): 0.95

CC(N)Cc1ccccc1 (stereo not drawn) [amphetamine]
effect on performance (relative response rate curve) in PIP 30 s task (mice (C57BL/6J; C3H); 1 mg/kg): positive effects
effect on performance (relative response rate curve) in PIP 30 s task (mice (C57BL/6J; C3H); 2 mg/kg): positive effects
effect on performance (relative response rate curve) in PIP 30 s task (mice (C57BL/6J; C3H); 4 mg/kg): disrupted performance
total distance traveled ([3]; Cm mutant mice, 4 mg/kg i.p. 30 min before 40 min open-field session, saline 18386±6387): 5966±1938 cm
effect on hyperactivity / locomotor activity (Cm mutant mice): normalizes the hyperactivity
total distance traveled (wild-type mice; 4 mg/kg i.p. 30 min before 40 min open-field session, saline 3116±338): 11657±2370 centimeters

O=C1CC2(CCCC2)CC(=O)N1CCCCN1CCN(c2ncccn2)CC1 [buspirone]
ΔpKi for 5-HT1A and D2 receptors (5-HT1A receptors [2]): 0.44

CC1(C)CC(=O)N(CCCCN2CCN(c3ncccn3)CC2)C(=O)C1 [gepirone]
intrinsic activity at the 5-HT1A receptor (5-HT1A receptors [1]): 0.77

Clc1cnn(CCCCN2CCN(c3ncccn3)CC2)c1 [lesopitron, 2-[4-[4-(4-chloro-1H-pyrazol-1-yl)-butyl]-1-piperazinyl]pyrimidine]
affinity for other 5-HT receptor subtypes or other neurotransmitter receptors [10]: virtually no affinity
intrinsic activity at the 5-HT1A receptor (5-HT1A receptors [1]): 0.70

COC(=O)C(c1ccccc1)C1CCCCN1 (stereo not drawn) [methylphenidate]
effect on hyperactivity / locomotor activity (Cm mutant mice): increases locomotor activity in a dose-dependent manner
